Measured values: patent US20240076630A1, “METHODS FOR GENERATING NEURAL TISSUE AND USES THEREOF” (priority 2015, published 2024)

Test system: human brain organoids
Assay type: cell-based

For “2,3-Dioxo-6-nitro-1,2,3,4-tetrahydrobenzo[f]quinoxaline-7-sulfonamide disodium salt [NBQX]”, the mean spiking rate (NBQX 20 μM, n=9 units, p<0.05, two-tailed Wilcoxon signed rank test, FIG. 4D bottom panel legend) was “attenuated”, the “NBQX-treated median firing rate” value (bath application of 20 μM NBQX, 95% CI 0.0023 to 0.2048, n=12 units from 4 organoids) was 0.0733 Hz and the “reduction of the median mean firing rate” value (bath application of 20 μM NBQX, vs baseline median firing rate 0.3800 Hz, p=0.0005, n=12 units from 4 organoids) was 81%.
For Tetrodotoxin citrate [TTX], the spike rate was “suppressed”.
